Assay results published in US10689378B2, “Triazolopyridine compounds and uses thereof” (Novartis AG, priority 2016, dated 2020).
Where two headings read alike, the source gives them in different places.

Experiments:
[1] = target: wild type PRC2 (wtPRC2) complex (Homo sapiens, UniProt O75530); test: EED LC-MS assay (SAH production by PRC2); type: biochemical
Procedure, shortened: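 Pentameric PRC2 (EZH2, SUZ12, EED, Rbap48, AEBP), 12 nM final, preincubated 20 min with compound and SAM, then 1.5 μM biotinylated H3K27me0 peptide, 1 μM SAM, pH 8.0, 120 min at rt. SAH quantified by LC-MS/MS with d4-SAH; control-normalized activity fitted for IC50.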

EED (1-441)-His protein = target: T1, EED (1-441)-His protein (Homo sapiens, UniProt O75530); test: EED-H3K27Me3 peptide competition binding assay by AlphaScreen
T1 construct: 30 nM EED (1-441)-His protein
Procedure, shortened: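 Serially diluted compound (12 points, 3-fold) incubated 20 min with 30 nM EED(1-441)-His and 15 nM biotin-H3K27Me3(19-33) peptide in 25 mM HEPES pH 8, 0.02% Tween-20, 0.5% BSA. Ni-chelate acceptor/streptavidin donor beads (10 μg/mL each) added, 1 h rt dark; 615 nm emission normalized to controls, dose-response fit for IC50.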

[2] = system: H3K27 methylation in G401 cell; test: ELISA (H3K27 methylation) assay in G401 cells; type: cell-based, human; conditions: Homo sapiens
Procedure, shortened: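 G401 cells treated 48 h with 3-fold dilutions (8 or 12 points, top 20 μM). Acid-extracted histones probed by ELISA for H3K27me3 or H3K27me2 with ECL readout, normalized to total H3. Percent inhibition versus DMSO fitted to dose-response curve for IC50.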

[3] = PRC2 LC-MS assay, read-out: (b) IC50 EED LC-MS Qualified
[4] = EED-H3K27Me3 peptide competition, AlphaScreen, read-out: (a) IC50 EED Alphascreen binding Qualified
[5] = G-401, H3K27 methylation ELISA, read-out: (c) IC50 ELISA Qualified
[6] = read-out: (b) IC50, EED LC-MS Qualified
[7] = read-out: (a) IC50, EED Alphascreen binding Qualified
[8] = G-401, read-out: (c) IC50, ELISA Qualified

T1 sequence (O75530 whole entry): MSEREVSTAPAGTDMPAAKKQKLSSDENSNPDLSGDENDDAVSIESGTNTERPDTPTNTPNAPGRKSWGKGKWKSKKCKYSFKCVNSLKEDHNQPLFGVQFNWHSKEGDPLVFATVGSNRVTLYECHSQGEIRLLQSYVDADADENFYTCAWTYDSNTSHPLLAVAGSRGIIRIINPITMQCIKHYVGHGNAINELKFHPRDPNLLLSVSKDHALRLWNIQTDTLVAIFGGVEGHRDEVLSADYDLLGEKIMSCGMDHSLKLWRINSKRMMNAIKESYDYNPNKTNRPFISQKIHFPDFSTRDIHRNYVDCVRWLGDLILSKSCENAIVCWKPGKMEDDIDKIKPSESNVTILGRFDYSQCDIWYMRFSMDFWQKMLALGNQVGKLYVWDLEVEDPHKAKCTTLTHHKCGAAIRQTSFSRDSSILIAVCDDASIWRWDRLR
Sequence of wild type PRC2 (wtPRC2) complex (O75530 whole entry): as above
Sequence of wild type PRC2 (wtPRC2) complex (Q15910 whole entry partner): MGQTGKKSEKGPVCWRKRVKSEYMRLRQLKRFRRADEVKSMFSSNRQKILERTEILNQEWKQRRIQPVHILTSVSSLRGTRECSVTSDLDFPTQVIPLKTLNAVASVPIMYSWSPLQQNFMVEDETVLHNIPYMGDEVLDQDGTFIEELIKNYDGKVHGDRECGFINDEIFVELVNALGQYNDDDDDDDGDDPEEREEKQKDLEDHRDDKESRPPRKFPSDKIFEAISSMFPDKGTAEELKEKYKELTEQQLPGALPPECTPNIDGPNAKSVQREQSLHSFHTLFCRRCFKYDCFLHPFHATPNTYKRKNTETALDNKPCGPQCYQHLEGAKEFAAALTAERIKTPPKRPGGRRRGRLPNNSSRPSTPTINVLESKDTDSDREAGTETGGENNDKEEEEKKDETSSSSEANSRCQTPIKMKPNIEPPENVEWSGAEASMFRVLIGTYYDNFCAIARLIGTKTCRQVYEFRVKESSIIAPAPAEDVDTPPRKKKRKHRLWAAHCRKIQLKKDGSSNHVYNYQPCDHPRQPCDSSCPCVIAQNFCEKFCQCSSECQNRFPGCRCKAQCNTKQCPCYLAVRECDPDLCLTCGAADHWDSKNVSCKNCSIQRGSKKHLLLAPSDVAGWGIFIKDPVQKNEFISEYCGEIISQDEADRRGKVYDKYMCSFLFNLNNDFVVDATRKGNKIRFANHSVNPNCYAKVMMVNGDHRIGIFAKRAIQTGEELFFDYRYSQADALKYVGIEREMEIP
Sequence of wild type PRC2 (wtPRC2) complex (Q15022 whole entry partner): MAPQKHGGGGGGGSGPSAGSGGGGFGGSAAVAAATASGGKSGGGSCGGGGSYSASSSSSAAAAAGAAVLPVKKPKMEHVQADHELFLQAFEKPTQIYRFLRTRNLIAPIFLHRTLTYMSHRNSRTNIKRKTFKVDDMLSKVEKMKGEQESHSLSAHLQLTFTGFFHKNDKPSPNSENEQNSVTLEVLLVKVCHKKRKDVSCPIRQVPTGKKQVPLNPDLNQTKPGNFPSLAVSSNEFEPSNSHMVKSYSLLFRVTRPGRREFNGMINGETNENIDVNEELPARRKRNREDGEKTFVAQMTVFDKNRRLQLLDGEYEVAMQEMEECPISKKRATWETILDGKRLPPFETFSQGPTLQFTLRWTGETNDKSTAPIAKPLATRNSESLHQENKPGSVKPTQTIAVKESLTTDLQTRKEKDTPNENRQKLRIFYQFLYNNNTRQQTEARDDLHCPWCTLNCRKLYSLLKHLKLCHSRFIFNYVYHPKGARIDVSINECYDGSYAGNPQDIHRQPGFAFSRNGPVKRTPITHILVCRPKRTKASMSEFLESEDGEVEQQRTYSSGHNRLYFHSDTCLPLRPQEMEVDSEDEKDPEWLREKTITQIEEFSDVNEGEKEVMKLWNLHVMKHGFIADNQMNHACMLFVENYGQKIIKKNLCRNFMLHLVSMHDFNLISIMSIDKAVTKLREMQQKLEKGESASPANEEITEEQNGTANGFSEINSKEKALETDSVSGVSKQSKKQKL
Sequence of wild type PRC2 (wtPRC2) complex (Q09028 whole entry partner): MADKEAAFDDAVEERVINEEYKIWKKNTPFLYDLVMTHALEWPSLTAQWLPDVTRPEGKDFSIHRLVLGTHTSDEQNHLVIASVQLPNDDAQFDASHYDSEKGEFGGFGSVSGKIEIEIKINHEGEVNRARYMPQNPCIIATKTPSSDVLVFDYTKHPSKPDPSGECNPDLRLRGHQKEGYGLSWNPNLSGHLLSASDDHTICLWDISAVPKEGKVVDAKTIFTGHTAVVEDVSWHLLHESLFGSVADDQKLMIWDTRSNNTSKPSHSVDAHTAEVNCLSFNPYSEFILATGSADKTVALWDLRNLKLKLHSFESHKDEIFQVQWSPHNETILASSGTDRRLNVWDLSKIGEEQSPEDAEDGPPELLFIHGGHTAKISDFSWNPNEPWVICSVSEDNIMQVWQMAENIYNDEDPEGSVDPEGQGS
Sequence of wild type PRC2 (wtPRC2) complex (Q6ZN18 whole entry partner): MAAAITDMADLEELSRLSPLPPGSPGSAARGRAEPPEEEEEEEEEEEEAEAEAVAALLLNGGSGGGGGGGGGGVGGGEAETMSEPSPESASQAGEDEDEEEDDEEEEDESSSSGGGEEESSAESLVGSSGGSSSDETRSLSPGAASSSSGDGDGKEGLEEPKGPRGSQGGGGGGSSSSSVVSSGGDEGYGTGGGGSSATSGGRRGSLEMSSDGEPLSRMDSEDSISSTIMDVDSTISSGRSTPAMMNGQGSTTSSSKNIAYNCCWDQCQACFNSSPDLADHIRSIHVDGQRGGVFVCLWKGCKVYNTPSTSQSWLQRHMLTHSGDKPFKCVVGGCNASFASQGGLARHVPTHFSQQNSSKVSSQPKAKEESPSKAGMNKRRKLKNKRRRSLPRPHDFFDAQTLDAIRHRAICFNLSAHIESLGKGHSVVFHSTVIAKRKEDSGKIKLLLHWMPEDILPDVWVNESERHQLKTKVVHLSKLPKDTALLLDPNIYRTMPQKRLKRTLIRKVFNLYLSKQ

IC50 [1, 3] [nM]	IC50 (EED (1-441)-His protein; [4]) [nM]	IC50 [2, 5] [nM]	IC50 [1, 6] [nM]	IC50 (EED (1-441)-His protein; [7]) [nM]	IC50 [2, 8] [nM]	Structure (SMILES)
321	30.7	12.4	–	–	–	COc1cc(F)cc(F)c1CNc1ccc(-c2ccc(C(=O)N(C)C)cc2C)c2nncn12 [Example 295, 4-(5-((2,4-difluoro-6-methoxybenzyl)amino)-[1,2,4]triazolo[4,3-a]pyridin-8-yl)-N,N,3-trimethyl benzamide]
171	31.2	22.5	–	–	–	COc1cccc(F)c1CNc1ccc(-c2cn(CCO)nc2C(F)(F)F)c2nncn12 [Example 312, 2-(4-(5-((2-fluoro-6-methoxybenzyl)amino)-[1,2,4]triazolo[4,3-a]pyridin-8-yl)-3-(trifluoromethyl)-1H-pyrazol-1-yl)ethanol]
63.8	17.9	15.9	–	–	–	COc1cc(F)cc(F)c1CNc1ccc(-c2ccc(C#N)nc2C)c2nncn12 [Example 324, 5-(5-((2,4-difluoro-6-methoxybenzyl)amino)-[1,2,4]triazolo[4,3-a]pyridin-8-yl)-6-methylpicolinonitrile]
–	–	–	498	73.4	47.7	COc1ccccc1CNc1ccc(-c2ccnnc2)c2nncn12 [Example 26, N-(2-methoxybenzyl)-8-(pyridazin-4-yl)-[1,2,4] triazolo[4,3-a]pyridin-5-amine]
–	–	–	281	21.5	43.3	COc1cccc(F)c1CNc1ccc(-c2ccc(NS(C)(=O)=O)cc2)c2nncn12 [Example 105, N-(4-(5-((2-fluoro-6-methoxybenzyl)amino)-[1,2,4]triazolo[4,3-a]pyridin-8-yl)phenyl)methane sulfonamide]
77.7	46.4	25	–	–	–	COc1cccc(F)c1CNc1ccc(-c2cnc(S(C)(=O)=O)cc2C)c2nncn12 [Example 184, N-(2-fluoro-6-methoxybenzyl)-8-(4-methyl-6-(methylsulfonyl)pyridin-3-yl)-[1,2,4]triazolo[4,3-a] pyridin-5-amine]
–	–	–	90.6	16	9.5	COc1cccc(F)c1CNc1ccc(-c2cccnc2)c2nncn12 [Example 114, N-(2-fluoro-6-methoxybenzyl)-8-(pyridin-3-yl)-[1,2,4]triazolo[4,3-a]pyridin-5-amine]
34	19.4	21.4	–	–	–	COc1cccc(F)c1CNc1ccc(-c2cnc(C)cc2C)c2nncn12 [Example 268, 8-(4,6-dimethylpyridin-3-yl)-N-(2-fluoro-6-methoxybenzyl)-[1,2,4]triazolo[4,3-a] pyridin-5-amine]
284	73.5	76.3	–	–	–	COc1ncccc1CNc1ccc(-c2cccnc2C)c2nncn12 [Example 328, N-((2-methoxypyridin-3-yl)methyl)-8-(2-methylpyridin-3-yl)-[1,2,4]triazolo[4,3-a] pyridin-5-amine]
449	33	25.5	–	–	–	COc1cccc(F)c1CNc1ccc(-c2cncc(C(C)(C)O)c2)c2nncn12 [Example 216, 2-(5-(5-((2-fluoro-6-methoxybenzyl)amino)-[1,2,4]triazolo[4,3-a]pyridin-8-yl)pyridin-3-yl)propan-2-ol]
71.1	53.6	56.4	–	–	–	COc1cccc(F)c1CNc1ccc(-c2c[nH]nc2C)c2nncn12 [Example 189, N-(2-fluoro-6-methoxybenzyl)-8-(3-methyl-1H-pyrazol-4-yl)-[1,2,4] triazolo[4,3-a]pyridin-5-amine]
39.6	24.6	20	–	–	–	COc1cc(F)cc(F)c1CNc1ccc(-c2cccnc2C)c2nncn12 [Example 239, N-(2,4-difluoro-6-methoxybenzyl)-8-(2-methylpyridin-3-yl)-[1,2,4]triazolo[4,3-a]pyridin-5-amine]
20	20.5	16.5	–	–	–	COc1cccc(F)c1CNc1ccc(-c2cccnc2Cl)c2nncn12 [Example 213, 8-(2-chloropyridin-3-yl)-N-(2-fluoro-6-methoxybenzyl)-[1,2,4]triazolo[4,3-a]pyridin-5-amine]
–	–	–	252	11.8	29.9	COc1ccccc1CNc1ccc(-c2ccc(CN3CC(F)C3)cc2)c2nncn12 [Example 66, 8-(4-((3-fluoroazetidin-1-yl)methyl)phenyl)-N-(2-methoxybenzyl)-[1,2,4] triazolo[4,3-a]pyridin-5-amine]
965	55.2	62.7	–	–	–	CO/N=C(\C)c1ccc(-c2ccc(NCc3c(F)cccc3OC)n3cnnc23)cn1 [Example 214, (E)-1-(5-(5-((2-fluoro-6-methoxybenzyl)amino)-[1,2,4]triazolo[4,3-a]pyridin-8-yl)pyridin-2-yl)ethanone O-methyl oxime]
–	–	–	248	79	185	COc1ccccc1CNc1ccc(-c2cnc(N3CCN(C)CC3)c(C)c2)c2nncn12 [Example 20, N-(2-methoxybenzyl)-8-(5-methyl-6-(4-methylpiperazin-1-yl)pyridin-3-yl)-[1,2,4]triazolo[4,3-a]pyridin-5-amine]
116	83.6	66.3	–	–	–	COc1cccc(F)c1CNc1ccc(-c2cnccc2Cl)c2nncn12 [Example 236, 8-(4-chloropyridin-3-yl)-N-(2-fluoro-6-methoxybenzyl)-[1,2,4]triazolo[4,3-a]pyridin-5-amine]
71.6	24.5	16.7	–	–	–	COc1cccc(F)c1CNc1ccc(-c2cnccc2C(F)F)c2nncn12 [Example 258, 8-(4-(difluoromethyl)pyridin-3-yl)-N-(2-fluoro-6-methoxybenzyl)-[1,2,4] triazolo [4,3-a]pyridin-5-amine]
20.9	6	6.7	–	–	–	COc1cccc(F)c1CNc1ccc(-c2ccc(CC#N)nc2C)c2nncn12 [Example 339, 2-(5-(5-((2-fluoro-6-methoxybenzyl)amino)-[1,2,4]triazolo[4,3-a]pyridin-8-yl)-6-methylpyridin-2-yl) acetonitrile]
–	–	–	572	21.7	14.2	COc1ccccc1CNc1ccc(-c2ccc(S(=O)(=O)C(C)C)nc2)c2nncn12 [Example 127, 8-(6-(isopropylsulfonyl)pyridin-3-yl)-N-(2-methoxybenzyl)-[1,2,4]triazolo[4,3-a] pyridin-5-amine]
41.9	22.7	12.4	–	–	–	COc1cccc(F)c1CNc1ccc(-c2ccc(C)nc2C)c2nncn12 [Example 249, 8-(2,6-dimethylpyridin-3-yl)-N-(2-fluoro-6-methoxybenzyl)-[1,2,4]triazolo[4,3-a] pyridin-5-amine]
14.7	3.4	4	–	–	–	COc1cccc(F)c1CNc1ccc(-c2cn(C)nc2C(F)F)c2nncn12 [Example 313, 8-(3-(difluoromethyl)-1-methyl-1H-pyrazol-4-yl)-N-(2-fluoro-6-methoxybenzyl)-[1,2,4]triazolo[4,3-a]pyridin-5-amine]
–	–	–	491	55.7	815	COc1cc(F)ccc1CNc1ccc(-c2ccc(S(C)(=O)=O)cc2)c2nncn12 [Example 83, N-(4-fluoro-2-methoxybenzyl)-8-(4-(methylsulfonyl)phenyl)-[1,2,4]triazolo[4,3-a]pyridin-5-amine]
